For one data set, the system named is EMRSA strains. The data set can be described thus: MIC of vancomycin or flucloxacillin with and without Aurograb (Table 3a). The settings on record: Staphylococcus aureus; all EMRSA strains; read-out: MIC of flucloxacillin. Type of data set: cell-based, S. aureus. The protocol:
Strains of MRSA were grown overnight in nutrient broth and diluted to give an inoculum of 1×10^3 cells per mL. […] Cultures were incubated for a further 2 days. The minimum growth-inhibitory concentration (MIC) is defined as the […] concentration of antibiotic at which no bacterial growth occurs and is determined by spectrophotometric evaluation of the lack of turbidity (growth) in culture. MICs were determined in the presence of exogenous Aurograb or in the presence of Aurograb formulation buffer (negative control).
The experiments were also performed using flucloxacillin instead of vancomycin to investigate how the efficacy of penicillin-type […] was affected by Aurograb.

The test system of a further data set is human blood. The data set can be described thus: Blood compatibility study (haemolysis). Here is the method:
This study was carried out by Biochemical Pharmacology department at Inveresk Research, Scotland, in order to assess the suitability of Aurograb for intravenous administration.
Blood samples were taken from healthy human volunteers, transferred to tubes containing Aurograb, Aurograb vehicle, saponin or saline and incubated at 37° C. for 1 hour. After centrifugation, the amount of haemoglobin in the supernatant was then assessed to determine haemolysis.

As for `Cc1onc(-c2c(F)cccc2Cl)c1C(=O)N[C@@H]1C(=O)N2[C@@H]1SC(C)(C)[C@@H]2C(=O)O` [flucloxacillin], the MIC (as a rule, the least concentration at which growth counts as inhibited) in the data set on EMRSA strains was over 256 µg/mL.
Consider saponin, for which the “Haemolysis classification (ASTM F756-93)” value in the data set with human blood is listed as “severely haemolytic”.
